The conditions of data set [1]: cited from earlier work.
The next data set deals with presbyopia. The data set is described as follows: Study in presbyopia patients over 40 years old, non-dominant eye treated, single daily application. It is filed as in vivo, human. Particulars: bromfenac combined with pilocarpine. An excerpt: The study carried out by the present invention is based on a composition distinct from Dr. Benotzzi's, as well as on other selection criteria as regards patients, exclusively including patients over 40 years old with evident signs of clear presbyopia with a refractive defect among −0.50 of myopia and +0.75 of hyperopia with a maximum astigmatism of −0.75, in addition to their corresponding age-based presbyopia. Here, only those patients with the following characteristics were considered ideal candidates: an ACD (Anterior Chamber […] of the eye) greater than 2.5 mm, a White-to-White (horizontal diameter) greater than 11.4 mm and a value of photopic pupils higher than 3 mm. and of scotopic pupils lower than 6.5 mm, plus a correct convergence and binocularity and a density of the eye crystal lower than 25 measured with Pentacam. Additionally, only the non-dominant eye has been always treated, a situation that is not reflected in the studies of Dr. Benozzi, although we have evidence that recommends the use in both eyes. […]

In data set [2] the test system is prostaglandin synthesis at the level of ciliary body and the iris. Particulars: in vitro; cited from earlier work.
The mark [3] stands for this setting: after instillation on the ocular surface.

As for `Nc1c(CC(=O)O)cccc1C(=O)c1ccc(Br)cc1` [bromfenac sodium sesquihydrate], in data set [1] (setting [3]), the “concentrations in aqueous humor remained” value was “over 12 hours” and the “measurable levels in the major ocular tissues” value is at most 24 h. Further, in data set [1] (human cornea), the “passage through the human cornea” value was “efficiently pass through the human cornea”.

In the case of `Nc1c(CC(=O)O)cccc1C(=O)c1ccc(Br)cc1` [bromfenac], the “parasympathomimetic action of pilocarpine” value with presbyopia (compared with diclofenac of Dr. Benozzi's formula) is recorded as “significantly extends”. Also, the “depth of focus of the treated eye” value with presbyopia (non-dominant eye treated) is “significant increase”. In data set [2], the “inhibition of prostaglandin synthesis” value was “inhibits prostaglandin synthesis”.

These data come from patent US9987254B2, “Ophthalmic composition for correcting presbyopia” (Eurocanarias Oftalmológica, S.L., priority 2013, dated 2018).
